# Experimental data published in PubChem BioAssay (NCI).
#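 Cultured in 96-well plates, cells were exposed to test compound for 48 hours across five concentrations. TGI is the concentration that stops growth completely.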
# How the values were obtained:
# Experiment in all cases: NCI-60 cell line screen, 48 h
# [1] = tested on: UACC-257 melanoma
# [2] = tested on: SR leukemia
# [3] = tested on: OVCAR-4 ovarian
# [4] = tested on: HOP-92 NSCLC
# [5] = tested on: SNB-19 CNS
# [6] = tested on: NCI-H522 lung
# [7] = tested on: NCI-H460 lung
# [8] = tested on: HOP-62 NSCLC
# [9] = tested on: HCT-116 colon
# [10] = tested on: SK-MEL-28 melanoma
# [11] = tested on: MDA-N
# [12] = tested on: NCI/ADR-RES ovarian
# [13] = tested on: NCI-H226 lung
# [14] = tested on: ACHN renal
# [15] = tested on: IGROV1 ovarian
# [16] = tested on: SF-268 CNS
# [17] = tested on: UO-31 renal
# [18] = tested on: SK-OV-3 ovarian
# [19] = tested on: SW-620 colon
# [20] = tested on: HCC-2998 colon
# [21] = tested on: MOLT-4 leukemia
# [22] = tested on: SNB-75 CNS
# [23] = tested on: BT-549 breast
# [24] = tested on: KM12 colon
# [25] = tested on: M14 melanoma
# [26] = tested on: DU-145 prostate
# [27] = tested on: HS 578T breast
# [28] = tested on: COLO 205 colon
# [29] = tested on: 786-0 renal
# [30] = tested on: RXF 393 renal
# [31] = tested on: U251 CNS
# [32] = tested on: MDA-MB-231 breast
# [33] = tested on: HCT-15 colon
# [34] = tested on: CAKI-1 renal
# [35] = tested on: SK-MEL-5 melanoma
# [36] = tested on: MDA-MB-435
# [37] = tested on: OVCAR-3 ovarian
# [38] = tested on: OVCAR-8 ovarian
# [39] = tested on: NCI-H23 lung
# [40] = tested on: K-562 leukemia
# [41] = tested on: TK-10 renal
# [42] = tested on: SN12C renal
# [43] = tested on: SK-MEL-2 melanoma
# [44] = tested on: SF-539 CNS
# [45] = tested on: PC-3 prostate
# [46] = tested on: HT29 colon
# [47] = tested on: MALME-3M melanoma
# [48] = tested on: SF-295 CNS
# [49] = tested on: MCF7 breast
# [50] = tested on: UACC-62 melanoma
# [51] = tested on: OVCAR-5 ovarian
# [52] = tested on: A498 renal
# [53] = tested on: LOX IMVI melanoma
# [54] = tested on: EKVX NSCLC
# [55] = tested on: A549 NSCLC
# [56] = tested on: CCRF-CEM leukemia
# [57] = tested on: RPMI-8226 leukemia
# [58] = tested on: HL-60(TB) leukemia
smiles,measurement,setting,value
COc1c(C)c(OC)c2c(c1O)[C@@H]1[C@@H]3Cc4c(OC)c(C)c(OC)c(O)c4[C@H](CNC(=O)c4ccc5ccccc5n4)N3[C@@H](C#N)[C@H](C2)N1C,TGI,[1],0.00546 µM
same,TGI,[2],0.000329 µM
same,TGI,[3],0.00742 µM
same,TGI,[4],0.00322 µM
same,TGI,[5],> 0.1 µM
same,TGI,[6],0.000444 µM
same,TGI,[7],> 0.0901 µM
same,TGI,[8],0.0104 µM
same,TGI,[9],0.00585 µM
same,TGI,[10],0.00592 µM
same,TGI,[11],0.00283 µM
same,TGI,[12],> 0.052 µM
same,TGI,[13],0.00571 µM
same,TGI,[14],> 0.1 µM
same,TGI,[15],0.000858 µM
same,TGI,[16],0.0305 µM
same,TGI,[17],0.00879 µM
same,TGI,[18],> 0.1 µM
same,TGI,[19],0.00251 µM
same,TGI,[20],0.0007 µM
same,TGI,[21],0.0144 µM
same,TGI,[22],0.0143 µM
same,TGI,[23],0.00172 µM
same,TGI,[24],0.00227 µM
same,TGI,[25],0.00267 µM
same,TGI,[26],> 0.0296 µM
same,TGI,[27],0.00741 µM
same,TGI,[28],> 0.1 µM
same,TGI,[29],0.00791 µM
same,TGI,[30],0.00347 µM
same,TGI,[31],> 0.1 µM
same,TGI,[32],> 0.0276 µM
same,TGI,[33],> 0.0597 µM
same,TGI,[34],0.0384 µM
same,TGI,[35],0.00186 µM
same,TGI,[36],0.00438 µM
same,TGI,[37],0.0023 µM
same,TGI,[38],> 0.1 µM
same,TGI,[39],0.00187 µM
same,TGI,[40],> 0.1 µM
same,TGI,[41],0.0023 µM
same,TGI,[42],> 0.1 µM
same,TGI,[43],0.000832 µM
same,TGI,[44],0.00774 µM
same,TGI,[45],> 0.0514 µM
same,TGI,[46],0.00491 µM
same,TGI,[47],0.000743 µM
same,TGI,[48],> 0.0214 µM
same,TGI,[49],> 0.1 µM
same,TGI,[50],0.00236 µM
same,TGI,[51],0.00353 µM
same,TGI,[52],0.00411 µM
same,TGI,[53],> 0.1 µM
CCOC(=O)CC1c2ccc(O)cc2OC(=O)C1c1ccc(N)cc1 (stereo not given),TGI,[1],> 100 µM
same,TGI,[2],> 100 µM
same,TGI,[5],> 100 µM
same,TGI,[6],> 100 µM
same,TGI,[7],> 100 µM
same,TGI,[8],> 100 µM
same,TGI,[9],> 100 µM
same,TGI,[54],> 100 µM
same,TGI,[10],> 100 µM
same,TGI,[11],> 100 µM
same,TGI,[12],> 100 µM
same,TGI,[13],> 100 µM
same,TGI,[14],> 100 µM
same,TGI,[15],> 100 µM
same,TGI,[16],> 100 µM
same,TGI,[17],> 100 µM
same,TGI,[18],> 100 µM
same,TGI,[19],> 100 µM
same,TGI,[55],> 100 µM
same,TGI,[20],> 100 µM
same,TGI,[21],> 100 µM
same,TGI,[22],> 100 µM
same,TGI,[23],> 100 µM
same,TGI,[24],> 100 µM
same,TGI,[25],> 100 µM
same,TGI,[26],> 100 µM
same,TGI,[27],> 100 µM
same,TGI,[28],> 100 µM
same,TGI,[29],> 100 µM
same,TGI,[30],> 100 µM
same,TGI,[31],> 100 µM
same,TGI,[56],> 100 µM
same,TGI,[32],> 100 µM
same,TGI,[57],> 100 µM
same,TGI,[33],> 100 µM
same,TGI,[34],> 100 µM
same,TGI,[35],> 100 µM
same,TGI,[36],> 100 µM
same,TGI,[37],> 100 µM
same,TGI,[38],> 100 µM
same,TGI,[39],> 100 µM
same,TGI,[40],> 100 µM
same,TGI,[41],> 100 µM
same,TGI,[42],> 100 µM
same,TGI,[43],> 100 µM
same,TGI,[44],> 100 µM
same,TGI,[45],> 100 µM
same,TGI,[46],> 100 µM
same,TGI,[47],> 100 µM
same,TGI,[48],> 100 µM
same,TGI,[49],> 100 µM
same,TGI,[50],> 100 µM
same,TGI,[52],> 100 µM
same,TGI,[53],> 100 µM
Nc1nc(Cl)c(/C=N\O)c(NCC2(CO)CC(=O)C2)n1,TGI,[1],> 100 µM
same,TGI,[3],> 100 µM
same,TGI,[4],> 100 µM
same,TGI,[5],> 100 µM
same,TGI,[6],> 100 µM
same,TGI,[7],> 100 µM
same,TGI,[8],> 100 µM
same,TGI,[9],> 100 µM
same,TGI,[54],> 100 µM
same,TGI,[10],> 100 µM
same,TGI,[11],> 100 µM
same,TGI,[12],> 100 µM
same,TGI,[13],> 100 µM
same,TGI,[14],> 100 µM
same,TGI,[15],70.4 µM
same,TGI,[16],> 100 µM
same,TGI,[17],> 100 µM
same,TGI,[19],> 100 µM
same,TGI,[55],> 100 µM
same,TGI,[20],> 100 µM
same,TGI,[21],> 100 µM
same,TGI,[22],> 100 µM
same,TGI,[23],> 100 µM
same,TGI,[24],82.1 µM
same,TGI,[26],> 100 µM
same,TGI,[27],55.6 µM
same,TGI,[28],> 100 µM
same,TGI,[29],> 100 µM
same,TGI,[30],> 100 µM
same,TGI,[31],> 100 µM
same,TGI,[56],> 100 µM
same,TGI,[32],> 100 µM
same,TGI,[58],> 100 µM
same,TGI,[57],> 100 µM
same,TGI,[33],> 100 µM
same,TGI,[34],> 100 µM
same,TGI,[35],> 100 µM
same,TGI,[36],> 100 µM
same,TGI,[37],> 100 µM
same,TGI,[38],> 100 µM
same,TGI,[39],> 100 µM
same,TGI,[40],> 100 µM
same,TGI,[41],> 100 µM
same,TGI,[42],> 100 µM
same,TGI,[44],> 100 µM
same,TGI,[45],> 100 µM
same,TGI,[46],> 100 µM
same,TGI,[47],> 100 µM
same,TGI,[48],> 100 µM
same,TGI,[49],> 100 µM
same,TGI,[51],> 100 µM
same,TGI,[52],> 100 µM
same,TGI,[53],> 100 µM
